Data on 11 compounds can be found in US20240109853A1 (Shanghai Yao Yuan Biotechnology Co., Ltd., priority 2020, published 2024).

For experiment [1], the system named is ALPK1-dependent NFκB reporter gene activation in HEK293 cells stably expressing an NF-kB reporter (G9 cells). The experiment can be described thus: NFκB gene reporter alkaline phosphatase assay. The class given is cell-based. To be noted: Homo sapiens, HEK293; read-out: NFkB assay IC50. The method in brief:
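HEK293 G9 cells stably carrying an NF-kB alkaline phosphatase reporter were seeded at 10,000 cells/well in Freestyle 293 medium and attached overnight. They were pretreated with serially diluted compound for 30 min, then stimulated with D-glycero-D-manno-6-fluoro-heptose-1β-S-ADP. Reporter phosphatase was read with pNPP; IC50 from logistic fit.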

A further experiment has as its target ALPK1 (Homo sapiens (Human), UniProt Q96QP1). The experiment can be described thus: ALPK1 in vitro kinase assay (HTRF of TIFA phosphorylation). It counts as biochemical.
In the next experiment the target is hALPK1-V1092A (Homo sapiens (Human), UniProt Q96QP1, V1092A). As to the kind of experiment: cell-based.
Chain of hALPK1-V1092A (Q96QP1 whole entry V1092A): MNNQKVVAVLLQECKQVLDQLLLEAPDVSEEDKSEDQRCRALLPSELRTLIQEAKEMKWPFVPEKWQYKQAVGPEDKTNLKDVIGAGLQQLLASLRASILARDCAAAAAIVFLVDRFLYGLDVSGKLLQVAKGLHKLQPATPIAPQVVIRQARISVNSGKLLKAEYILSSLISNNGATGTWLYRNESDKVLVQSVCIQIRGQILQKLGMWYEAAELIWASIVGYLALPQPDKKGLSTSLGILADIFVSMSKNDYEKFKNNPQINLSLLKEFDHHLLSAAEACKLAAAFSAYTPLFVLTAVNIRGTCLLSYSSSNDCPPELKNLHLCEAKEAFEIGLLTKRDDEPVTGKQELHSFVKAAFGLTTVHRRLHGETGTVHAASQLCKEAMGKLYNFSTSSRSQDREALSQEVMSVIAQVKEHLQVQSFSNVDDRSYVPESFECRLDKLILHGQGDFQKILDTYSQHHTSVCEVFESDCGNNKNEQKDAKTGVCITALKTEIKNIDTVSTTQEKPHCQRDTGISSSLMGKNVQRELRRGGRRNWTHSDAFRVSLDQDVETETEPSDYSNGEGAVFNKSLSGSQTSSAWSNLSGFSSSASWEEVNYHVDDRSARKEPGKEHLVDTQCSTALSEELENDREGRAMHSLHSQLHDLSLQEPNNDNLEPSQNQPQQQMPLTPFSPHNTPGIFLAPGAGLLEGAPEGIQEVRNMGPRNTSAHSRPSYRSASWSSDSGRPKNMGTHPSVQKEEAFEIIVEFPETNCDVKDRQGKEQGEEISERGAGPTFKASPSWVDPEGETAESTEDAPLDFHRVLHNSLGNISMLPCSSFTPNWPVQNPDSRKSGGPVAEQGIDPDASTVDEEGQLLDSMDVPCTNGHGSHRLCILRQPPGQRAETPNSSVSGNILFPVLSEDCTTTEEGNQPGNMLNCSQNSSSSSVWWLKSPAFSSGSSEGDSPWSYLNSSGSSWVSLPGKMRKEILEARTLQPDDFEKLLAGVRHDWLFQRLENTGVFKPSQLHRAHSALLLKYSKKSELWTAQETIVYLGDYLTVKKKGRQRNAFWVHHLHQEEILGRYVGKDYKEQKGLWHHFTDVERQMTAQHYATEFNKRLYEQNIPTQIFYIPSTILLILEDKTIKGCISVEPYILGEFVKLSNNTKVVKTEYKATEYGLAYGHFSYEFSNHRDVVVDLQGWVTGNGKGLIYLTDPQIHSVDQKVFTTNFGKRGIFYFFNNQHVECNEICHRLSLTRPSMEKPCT
Experiment [2] relates to polymicrobial sepsis induced by cecal ligation and puncture. The experiment can be described thus: Sepsis induced acute kidney injury model (cecal ligation and puncture, CLP). Conditions: rat CLP, 20 mg/kg 2 hours prior to surgery; for kidney proinflammatory gene expression (IL6, TNFa, IL-1b, CCl2, KC): kidneys 24 hours post-surgery, Q-PCR; for survival: survival over 24 hours.
Protocol: Survival was recorded over the following 24 hours.
24 hours post-surgery, the kidneys were collected for gene expression analysis by Q-PCR.
24 hours post-surgery, plasma MCP-1 concentration was measured by ELISA.
We used a rat CLP model to evaluate the effects of compounds described here on sepsis. Briefly, the rat cecum was ligated with sterile silk thread, and then cecum was punctured twice with a needle, gently squeezed to express a small amount of fecal material, then the abdominal incision was closed. […] In addition, at 24 hours post-surgery, the kidneys were collected for gene expression analysis by Q-PCR and plasma was collected for measurement of plasma MCP-1 concentrations by ELISA.

For experiment [3], the system named is innate immunity gene expression in kidney. As to the kind of experiment: Inhibition of activated ALPK1 in kidney: innate immunity gene expression after ALPK1 agonist. It counts as in vivo, Sprague-Dawley (SD) rats. To be noted: SD rats, 4, 10 or 25 mg/kg oral 2 hours prior to agonist ip, kidney 3 hours after agonist, RT-PCR. How it is done: FIG. 2: Treatment groups were administered 4, 10 or 25 mg/kg of the ALPK1 inhibitor A0176 2 hours prior to the agonist, D-glycero-D-manno-6-fluoro-heptose-1β-S-ADP.
To test the effects of the ALPK1 inhibitors on the expression of innate immunity genes activated upon ALPK1 activation, SD rats were orally administered ALPK1 inhibitors followed by activation of innate immunity genes by intraperitoneal administration of an ALPK1 agonist, D-glycero-D-manno-6-fluoro-heptose-1β-S-ADP. Kidney tissue was harvested and assayed for gene expression. Briefly, Twenty male Sprague-Dawley (SD) rats were randomly divided into five groups. The normal group was given vehicle (0.5% MC) orally. After 2 hours, PBS was given by ip injection. The control group was given vehicle (0.5% MC) orally. After 2 hours, D-glycero-D-manno-6-fluoro-heptose-1β-S-ADP (50 μpk) was given by ip injection. The other 3 groups were given the ALPK1 inhibitor A0176 (4, 10 and 25 mpk) orally. After 2 hours, D-glycero-D-manno-6-fluoro-heptose-1β-S-ADP (50 μpk) was given by ip injection. […] Quantitative PCR was conducted using AceQ qPCR SYBR Green Master Mix Kit (Vazyme, Nanjing, China) on the QuantStudio 5 applied biosystems (Thermo scientific, USA). The relative mRNA levels were calculated using the 2-ΔΔCT method, and HPRT was used as a reference for gene expression normalization. […]

pIC50: −log10 of the molar value.

Chain of ALPK1 (Q96QP1 whole entry): as the sequence (Q96QP1 whole entry V1092A) above, with A1092V counted along it
Protocol for hALPK1-V1092A: Accordingly, we used IL-8 secretion as an indicator of activated ALPK1 inhibition in cells expressing these mutations.
Transfection was performed according to manufacturer's protocols (Lipofectamine™ 3000, ThermoFisher). Transfected cells were selected, seeded onto 96-well plates and treated with serial dilutions of the test compounds for 6.5 hr. Following treatment, cell viability was determined using a luminescent cell viability assay (Cell Counting-Lite Assay or “CCL Assay” from Vazyme Biotech Co., Ltd.) and cell free supernatants were collected and analyzed for IL-8 protein by IL-8 ELISA as described above.
Fresh medium and compound were added at 18 hours. Cell viability and IL-8 secretion were determined 6 hours after the second addition of compound, using the CCL assay and IL-8 ELISA as described above.

For the compound `C#C[C@@](C)(c1ccc(Cl)cc1)c1csc(NC(=O)NCCO)n1` [Example A176, (S)-1-(4-(2-(4-chlorophenyl)but-3-yn-2-yl)thiazol-2-yl)-3-(2-hydroxyethyl)urea], the values for the pIC50 (in experiment [1]; against ALPK1; on hALPK1-V1092A) were 6.55, 8.27 and 5.81, respectively.
As for `C#C[C@](C)(c1ccc(Cl)cc1)c1csc(NC(=O)NCCO)n1` [Example A175, (R)-1-(4-(2-(4-chlorophenyl)but-3-yn-2-yl)thiazol-2-yl)-3-(2-hydroxyethyl)urea], the pIC50 in experiment [1] was 5.88; at ALPK1, 7.49; against hALPK1-V1092A it was 5.40.
For `C#C[C@@](C)(c1ccc(Cl)cc1)c1csc(NC(=O)NCCS(N)(=O)=O)n1` [Example A289, 2-(3-(4-(2-(4-chlorophenyl)but-3-yn-2-yl)thiazol-2-yl)ureido)ethanesulfona-mide], in that order: 6.33, 7.27 and 6.36.
With `C#CC(C)(c1ccc(Cl)cc1)c1csc(NC(=O)NCC(O)CO)n1` (stereo not drawn) [Example A244, 1-(4-(2-(4-chlorophenyl)but-3-yn-2-yl)thiazol-2-yl)-3-(2,3-dihydroxypropyl)urea], the negative logarithm of the IC50 (pIC50) in experiment [1] was 5.99; on ALPK1, 7.14; on hALPK1-V1092A, 5.32.
In the same order, the values of `C#C[C@@](C)(c1ccc(OC)cc1)c1csc(NC(=O)NCCS(N)(=O)=O)n1` [Example A311, 2-(3-(4-(2-(4-methoxyphenyl)but-3-yn-2-yl)thiazol-2-yl)ureido)ethanesulfona-mide] are 6.18, 7.02 and 5.94.
Turning to `C#C[C@@](C)(c1ccc(Cl)cc1)c1csc(NC(=O)NCCO)n1` [Example A0176], in experiment [2], the “kidney proinflammatory gene expression (IL6, TNFa, IL-1b, CCl2, KC)” value was “decreased expression of kidney proinflammatory genes” and the survival result is listed as “improved the animals' survival rate”. Further, the “plasma MCP-1 concentration” value in experiment [2] (plasma 24 hours post-surgery, ELISA) is on record as “improved the plasma MCP-1 levels”. The “kidney gene expression of innate immunity genes (MCP-1 (CCL-2), CCL-7, CXCL-1, CXCL-10, IL-1p, IL-6 mRNA)” value in experiment [3] was “dose-dependent inhibition of gene expression levels”.
With `C#CC(C)(c1ccc(Cl)cc1)c1csc(NC(=O)N2CC(N3CCNCC3)C2)n1` (stereo not drawn) [Example A261, N-(4-(2-(4-chlorophenyl)but-3-yn-2-yl)thiazol-2-yl)-3-(piperazin-1-yl)azetidine-1-carboxamide], the results for the pIC50 (in experiment [1]; on ALPK1; on hALPK1-V1092A) were 6.29, 7.08 and 6.24, respectively.
As to `C#C[C@@](C)(c1ccc(Cl)cc1)c1csc(NC(=O)c2c(F)cc(N3CCNCC3)cc2F)n1` [Example C008, (S)-N-(4-(2-(4-chlorophenyl)but-3-yn-2-yl)thiazol-2-yl)-2,6-difluoro-4-(piperazin-1-yl)benzamide], in experiment [2], the “kidney proinflammatory gene expression (IL6, TNFa, IL-1b, CCl2, KC)” value is “decreased expression of kidney proinflammatory genes” and the survival entry is reported as “improved the animals' survival rate”.
Turning to `C#C[C@](C)(c1ccc(OC)cc1)c1csc(NC(=O)NCCS(N)(=O)=O)n1` [Example A310, 2-(3-(4-(2-(4-methoxyphenyl)but-3-yn-2-yl)thiazol-2-yl)ureido)ethanesulfona-mide], the pIC50 in experiment [1] is 6.01; against ALPK1, 6.65; against hALPK1-V1092A it was 5.72.
Regarding `C#C[C@@](C)(c1ccc(Cl)cc1)c1csc(NC(=O)N2CC(CN3CCNCC3)C2)n1` (stereo in doubt) [Example A292, N-(4-(2-(4-chlorophenyl)but-3-yn-2-yl)thiazol-2-yl)-3-(piperazin-1-ylmethyl)azetidine-1-carboxamide], the pIC50 in experiment [1] was 6.19; on ALPK1, 7.37; against hALPK1-V1092A, 6.26.
In the same order, the values of `C#C[C@@](C)(c1ccc(Cl)cc1)c1csc(NC(=O)N2CC(c3ccc(N4CCNCC4)c(F)c3)C2)n1` [Example A245] are 6.17, 7.80 and 6.52.
